Consider three molecules from ChEMBL document CHEMBL1201862, “PubChem BioAssay data set” (2004).

SMILES strings stand for the structures. Calls of active or inactive are those of the source.

In general, Ki refers to a measure of affinity in units of concentration, obtained from inhibition or displacement. The EC50 is the concentration that produces a half-maximal response. Broadly, the CC50 is the concentration giving 50% cytotoxicity.

The target in assay [1] is T1, Mannose-6-phosphate isomerase (Homo sapiens, UniProt P34949).
T1 sequence (P34949 whole entry): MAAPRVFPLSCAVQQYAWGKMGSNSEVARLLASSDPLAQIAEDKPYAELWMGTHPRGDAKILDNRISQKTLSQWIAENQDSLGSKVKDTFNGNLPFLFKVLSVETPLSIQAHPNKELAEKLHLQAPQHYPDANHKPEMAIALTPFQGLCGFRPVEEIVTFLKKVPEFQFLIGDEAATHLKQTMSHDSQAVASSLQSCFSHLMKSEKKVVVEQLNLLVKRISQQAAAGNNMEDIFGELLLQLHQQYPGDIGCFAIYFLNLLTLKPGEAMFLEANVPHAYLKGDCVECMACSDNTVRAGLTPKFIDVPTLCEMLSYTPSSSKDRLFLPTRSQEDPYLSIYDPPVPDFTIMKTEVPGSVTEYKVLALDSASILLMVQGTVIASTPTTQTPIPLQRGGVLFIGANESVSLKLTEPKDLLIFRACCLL
In words: human PMI inhibitors, high substrate, primary screen, biochemical, fluorescence intensity, high mannose 6-phosphate (AID 1220).

In assay [2] the target is Mitogen-activated protein kinase 13 (Homo sapiens, UniProt O15264). It counts as functional.
Chain of Mitogen-activated protein kinase 13 (O15264 whole entry): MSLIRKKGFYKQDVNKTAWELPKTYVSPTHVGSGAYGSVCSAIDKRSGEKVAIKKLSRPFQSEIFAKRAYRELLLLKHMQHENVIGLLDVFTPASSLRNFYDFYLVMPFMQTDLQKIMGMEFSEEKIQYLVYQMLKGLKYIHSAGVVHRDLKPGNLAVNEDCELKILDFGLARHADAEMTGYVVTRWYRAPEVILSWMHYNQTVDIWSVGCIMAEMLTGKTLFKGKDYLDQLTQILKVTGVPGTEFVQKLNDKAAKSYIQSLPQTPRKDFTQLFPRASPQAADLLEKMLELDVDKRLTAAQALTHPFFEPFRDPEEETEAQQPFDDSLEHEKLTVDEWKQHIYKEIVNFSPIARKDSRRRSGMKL
Assay [3] has as its target Tyrosine-protein kinase JAK2 (Homo sapiens, UniProt O60674). It counts as functional.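 Also: JAK2 tested as one member of a kinase panel.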
A further assay deals with LIM domain kinase 1 (Homo sapiens, UniProt P53667). Briefly: Navigating the Kinome. Panel member name: LIMK1. It is filed as functional.
Chain of LIM domain kinase 1 (P53667 whole entry, the tested form may be a part): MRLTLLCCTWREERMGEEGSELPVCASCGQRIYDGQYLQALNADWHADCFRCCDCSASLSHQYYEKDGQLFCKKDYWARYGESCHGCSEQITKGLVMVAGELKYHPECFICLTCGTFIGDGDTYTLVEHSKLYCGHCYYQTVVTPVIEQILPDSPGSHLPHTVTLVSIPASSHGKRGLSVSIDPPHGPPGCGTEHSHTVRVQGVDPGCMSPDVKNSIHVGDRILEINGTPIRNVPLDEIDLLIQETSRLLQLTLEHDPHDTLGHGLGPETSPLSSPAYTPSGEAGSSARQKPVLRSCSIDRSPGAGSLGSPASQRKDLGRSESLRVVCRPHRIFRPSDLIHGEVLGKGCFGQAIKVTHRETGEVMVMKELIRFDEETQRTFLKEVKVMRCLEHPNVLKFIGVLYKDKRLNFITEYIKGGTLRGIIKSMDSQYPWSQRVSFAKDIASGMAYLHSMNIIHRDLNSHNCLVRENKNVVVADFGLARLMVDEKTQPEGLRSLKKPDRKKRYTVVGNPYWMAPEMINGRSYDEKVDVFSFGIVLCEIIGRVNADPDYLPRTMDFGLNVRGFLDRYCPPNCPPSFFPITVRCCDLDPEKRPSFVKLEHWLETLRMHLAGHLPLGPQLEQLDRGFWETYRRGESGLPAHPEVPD
For assay [4], the target named is Protein kinase C gamma type (Homo sapiens, UniProt P05129). It counts as functional.
Assay [5] concerns the target cAMP-dependent protein kinase catalytic subunit alpha (Homo sapiens, UniProt P17612). It is filed as functional.
Assay [6] deals with MAP kinase-activated protein kinase 2 (Homo sapiens, UniProt P49137). It is filed as functional.
Chain of MAP kinase-activated protein kinase 2 (P49137 whole entry): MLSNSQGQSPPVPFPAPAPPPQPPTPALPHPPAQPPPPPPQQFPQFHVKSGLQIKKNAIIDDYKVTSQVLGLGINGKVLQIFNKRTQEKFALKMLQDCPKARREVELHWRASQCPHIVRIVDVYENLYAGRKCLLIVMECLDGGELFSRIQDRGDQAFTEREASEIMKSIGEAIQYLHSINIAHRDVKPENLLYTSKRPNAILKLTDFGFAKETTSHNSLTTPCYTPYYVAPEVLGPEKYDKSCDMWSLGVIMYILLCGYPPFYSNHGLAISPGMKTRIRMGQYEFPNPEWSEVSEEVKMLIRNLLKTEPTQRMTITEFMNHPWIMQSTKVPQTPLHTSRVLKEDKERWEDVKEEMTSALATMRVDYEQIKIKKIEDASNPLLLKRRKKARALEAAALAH
The target of assay [7] is 3-phosphoinositide-dependent protein kinase 1 (Homo sapiens, UniProt O15530). It counts as functional.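 Also: value comes from the Navigating the Kinome panel, PDPK1 member.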
Chain of 3-phosphoinositide-dependent protein kinase 1 (O15530 whole entry): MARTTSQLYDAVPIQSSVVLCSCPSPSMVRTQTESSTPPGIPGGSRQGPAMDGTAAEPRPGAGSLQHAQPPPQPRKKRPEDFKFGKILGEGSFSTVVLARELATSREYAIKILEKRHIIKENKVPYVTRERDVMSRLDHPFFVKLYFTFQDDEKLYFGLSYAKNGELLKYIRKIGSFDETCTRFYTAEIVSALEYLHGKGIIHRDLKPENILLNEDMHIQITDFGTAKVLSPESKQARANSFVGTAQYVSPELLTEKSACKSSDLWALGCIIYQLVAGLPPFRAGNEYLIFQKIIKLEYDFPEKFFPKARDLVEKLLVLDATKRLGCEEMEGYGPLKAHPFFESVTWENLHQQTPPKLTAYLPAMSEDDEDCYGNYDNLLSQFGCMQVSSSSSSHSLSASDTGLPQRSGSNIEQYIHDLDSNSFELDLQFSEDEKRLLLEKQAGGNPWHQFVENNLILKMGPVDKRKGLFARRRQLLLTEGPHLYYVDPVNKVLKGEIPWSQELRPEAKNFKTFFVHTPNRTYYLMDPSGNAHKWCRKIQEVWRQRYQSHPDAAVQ
The target of assay [8] is Serine/threonine-protein kinase D2 (Homo sapiens, UniProt Q9BZL6). It is filed as functional.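 Also: measured against PRKD2 as one member of a kinome-wide kinase profiling panel.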
Chain of Serine/threonine-protein kinase D2 (Q9BZL6 whole entry): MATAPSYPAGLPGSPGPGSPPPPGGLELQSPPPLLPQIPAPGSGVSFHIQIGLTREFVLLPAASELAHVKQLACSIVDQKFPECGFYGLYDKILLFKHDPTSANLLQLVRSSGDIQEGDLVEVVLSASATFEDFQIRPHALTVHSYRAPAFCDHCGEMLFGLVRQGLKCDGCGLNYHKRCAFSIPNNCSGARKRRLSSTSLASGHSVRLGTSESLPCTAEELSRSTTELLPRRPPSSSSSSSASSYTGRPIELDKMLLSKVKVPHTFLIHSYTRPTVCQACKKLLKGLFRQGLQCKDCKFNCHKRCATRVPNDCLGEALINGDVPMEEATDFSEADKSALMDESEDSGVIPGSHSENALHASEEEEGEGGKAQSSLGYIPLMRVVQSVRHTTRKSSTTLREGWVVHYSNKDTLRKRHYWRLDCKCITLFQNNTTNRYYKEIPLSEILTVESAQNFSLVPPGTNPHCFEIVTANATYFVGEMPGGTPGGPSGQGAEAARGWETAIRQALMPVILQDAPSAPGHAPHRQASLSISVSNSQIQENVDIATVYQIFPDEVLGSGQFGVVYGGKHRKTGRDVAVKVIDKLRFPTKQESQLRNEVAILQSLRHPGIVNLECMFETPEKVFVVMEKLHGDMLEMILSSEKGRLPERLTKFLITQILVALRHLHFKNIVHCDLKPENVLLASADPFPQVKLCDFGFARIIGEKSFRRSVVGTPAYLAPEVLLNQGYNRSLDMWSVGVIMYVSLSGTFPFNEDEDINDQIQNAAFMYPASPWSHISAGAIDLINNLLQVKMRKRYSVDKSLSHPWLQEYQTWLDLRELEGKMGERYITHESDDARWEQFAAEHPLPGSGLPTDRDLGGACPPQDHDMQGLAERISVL
Assay [9] deals with Serine/threonine-protein kinase PLK1 (Homo sapiens, UniProt P53350). It counts as functional.
Assay [10] has as its target Small ubiquitin-related modifier 1 (Homo sapiens, UniProt P63165). In words: inhibitors of SUMO1 partner interactions, dose response, biochemical, FRET (AID 624383). It is filed as functional. Conditions: read-out: IC50_Mean.
The target of assay [11] is T2, Insulin-degrading enzyme (Homo sapiens, UniProt P14735).
T2 sequence (P14735 whole entry): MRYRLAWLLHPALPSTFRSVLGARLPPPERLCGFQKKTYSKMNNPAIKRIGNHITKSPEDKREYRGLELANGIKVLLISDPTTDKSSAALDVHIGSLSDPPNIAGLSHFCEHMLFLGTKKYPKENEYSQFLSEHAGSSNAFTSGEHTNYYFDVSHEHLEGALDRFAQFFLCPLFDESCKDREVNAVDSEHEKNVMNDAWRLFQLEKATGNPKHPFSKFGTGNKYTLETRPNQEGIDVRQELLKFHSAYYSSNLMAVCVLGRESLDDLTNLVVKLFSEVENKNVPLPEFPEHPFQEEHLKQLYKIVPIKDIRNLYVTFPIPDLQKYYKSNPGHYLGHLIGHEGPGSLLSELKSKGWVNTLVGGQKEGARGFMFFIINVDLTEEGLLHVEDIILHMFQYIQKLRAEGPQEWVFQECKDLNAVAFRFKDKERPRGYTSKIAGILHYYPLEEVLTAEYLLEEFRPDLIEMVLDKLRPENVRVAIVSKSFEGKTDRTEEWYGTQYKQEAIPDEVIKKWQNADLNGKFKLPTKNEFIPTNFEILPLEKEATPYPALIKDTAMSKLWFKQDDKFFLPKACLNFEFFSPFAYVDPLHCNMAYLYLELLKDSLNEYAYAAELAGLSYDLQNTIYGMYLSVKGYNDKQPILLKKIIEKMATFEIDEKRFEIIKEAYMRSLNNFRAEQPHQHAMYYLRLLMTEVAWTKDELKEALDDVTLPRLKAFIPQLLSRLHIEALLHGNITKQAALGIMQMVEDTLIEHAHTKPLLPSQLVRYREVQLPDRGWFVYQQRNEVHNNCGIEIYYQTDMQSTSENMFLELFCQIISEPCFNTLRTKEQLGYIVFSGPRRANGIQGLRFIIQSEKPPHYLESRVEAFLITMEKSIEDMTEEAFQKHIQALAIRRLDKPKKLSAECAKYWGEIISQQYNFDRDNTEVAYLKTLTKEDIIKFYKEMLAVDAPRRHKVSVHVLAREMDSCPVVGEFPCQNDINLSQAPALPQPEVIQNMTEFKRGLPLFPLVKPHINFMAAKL
In words: activators of recombinant IDE enzyme, dose response, counter-screen for IDE activator project, biochemical, fluorescence polarization (AID 588681).

Another assay deals with HEK293. Briefly: optical interference in Abeta FP readout, dose response, artefact control for IDE activator project, biochemical, fluorescence polarization (AID 588442). It is filed as functional, cell-based. As to conditions: Homo sapiens.
Assay [12] addresses T2, Insulin-degrading enzyme. Briefly: activators of endogenous IDE in HEK cells, dose response, cell-based, fluorescence polarization (AID 588439). It is filed as functional. In general terms: Fluorescence polarisation rises when a labelled molecule tumbles more slowly, as on binding a larger partner.
For assay [13], the target named is T3, Rac GTPase-activating protein 1 (Homo sapiens, UniProt Q9H0H5).
T3 sequence (Q9H0H5 whole entry): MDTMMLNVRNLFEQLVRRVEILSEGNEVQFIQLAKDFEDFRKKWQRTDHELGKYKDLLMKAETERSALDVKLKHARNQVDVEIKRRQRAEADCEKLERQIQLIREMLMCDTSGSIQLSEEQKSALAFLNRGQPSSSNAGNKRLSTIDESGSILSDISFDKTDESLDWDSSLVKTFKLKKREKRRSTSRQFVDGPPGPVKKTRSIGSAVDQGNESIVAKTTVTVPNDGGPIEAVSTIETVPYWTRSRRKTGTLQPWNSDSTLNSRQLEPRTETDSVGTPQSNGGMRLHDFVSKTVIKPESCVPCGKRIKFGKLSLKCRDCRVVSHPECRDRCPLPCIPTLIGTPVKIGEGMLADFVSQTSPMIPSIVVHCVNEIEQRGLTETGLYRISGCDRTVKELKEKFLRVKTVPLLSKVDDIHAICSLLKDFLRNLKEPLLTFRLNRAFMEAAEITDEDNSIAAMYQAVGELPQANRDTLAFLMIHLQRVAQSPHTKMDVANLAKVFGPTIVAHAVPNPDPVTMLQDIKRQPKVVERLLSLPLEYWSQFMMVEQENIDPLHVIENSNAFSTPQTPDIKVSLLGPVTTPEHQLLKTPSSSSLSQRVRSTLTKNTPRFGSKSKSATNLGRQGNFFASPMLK
In words: MgcRacGAP GTPase-activating activity inhibitors, confirmation, biochemical, ADP Hunter fluorescence, primary and confirmatory (AID 624330). It counts as functional.

Assay [14] is described as follows: HeLa cell cytotoxicity, dose response, cytotoxicity control for MgcRacGAP inhibitor project (AID 624300). It is filed as functional.

Chain of Small ubiquitin-related modifier 1 (P63165 whole entry): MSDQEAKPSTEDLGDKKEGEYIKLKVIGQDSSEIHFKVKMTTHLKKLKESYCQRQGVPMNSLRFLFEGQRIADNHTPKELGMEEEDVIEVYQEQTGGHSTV
Chain of Tyrosine-protein kinase JAK2 (O60674 whole entry, the tested form may be a part): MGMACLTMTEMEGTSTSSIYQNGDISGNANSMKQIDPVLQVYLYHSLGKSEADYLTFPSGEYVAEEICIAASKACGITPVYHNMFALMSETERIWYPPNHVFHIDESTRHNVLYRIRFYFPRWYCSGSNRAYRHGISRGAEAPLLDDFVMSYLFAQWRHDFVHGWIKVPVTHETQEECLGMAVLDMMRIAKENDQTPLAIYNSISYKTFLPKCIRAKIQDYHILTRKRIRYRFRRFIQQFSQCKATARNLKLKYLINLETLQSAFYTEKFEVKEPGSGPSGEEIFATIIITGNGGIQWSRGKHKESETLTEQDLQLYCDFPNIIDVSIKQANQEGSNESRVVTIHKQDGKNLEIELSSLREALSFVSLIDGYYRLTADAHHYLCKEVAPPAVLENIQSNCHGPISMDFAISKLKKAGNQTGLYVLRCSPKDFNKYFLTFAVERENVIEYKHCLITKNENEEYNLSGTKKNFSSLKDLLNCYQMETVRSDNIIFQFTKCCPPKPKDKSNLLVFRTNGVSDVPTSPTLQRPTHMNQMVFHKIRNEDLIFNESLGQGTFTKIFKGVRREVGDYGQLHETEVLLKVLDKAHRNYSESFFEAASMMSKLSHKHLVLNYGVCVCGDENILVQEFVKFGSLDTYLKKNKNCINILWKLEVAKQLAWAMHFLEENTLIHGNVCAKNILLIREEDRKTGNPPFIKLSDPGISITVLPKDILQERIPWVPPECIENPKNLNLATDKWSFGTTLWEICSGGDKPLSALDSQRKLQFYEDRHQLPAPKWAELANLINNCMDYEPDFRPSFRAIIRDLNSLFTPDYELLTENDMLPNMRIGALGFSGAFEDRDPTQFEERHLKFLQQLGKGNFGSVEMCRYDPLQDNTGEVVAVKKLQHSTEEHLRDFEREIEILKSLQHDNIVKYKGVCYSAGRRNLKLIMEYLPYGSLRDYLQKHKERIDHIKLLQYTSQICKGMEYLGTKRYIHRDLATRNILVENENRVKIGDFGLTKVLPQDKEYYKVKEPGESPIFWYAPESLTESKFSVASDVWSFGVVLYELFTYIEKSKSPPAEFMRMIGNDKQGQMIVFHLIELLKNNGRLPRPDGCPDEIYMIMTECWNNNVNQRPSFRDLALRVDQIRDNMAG

Regarding `CCC(C)NC(=O)c1c(N)n(CCCOC)c2nc3ccccc3nc12` (stereo unspecified), the IC50 in [1] was > 50 µM (not active).

As to `CC(=NNC(=N)N)c1cc(NC(=O)NCCCCCCNC(=O)Nc2cc(C(C)=NNC(=N)N)cc(C(C)=NNC(=N)N)c2)cc(C(C)=NNC(=N)N)c1`, the Ki was > 7.94 µM (inactive) in assay [2]; 1 µM (active) in [3]; 1.26 µM (active) on LIM domain kinase 1; 0.631 µM (active) in assay [4]; > 7.94 µM (inactive) in assay [5]; 0.631 µM (active) in assay [6]. Also, the results for the Ki in assay [7], in [8] and in [9] were > 3.98 µM (inactive), 0.631 µM (active) and > 7.94 µM (inactive), respectively.

Consider `Cc1cc(N)c2cc(NC(=O)/C=C/c3ccccc3Cl)ccc2n1`, for which the IC50 in assay [10] was 7.51 µM (active); in assay [13], 23.7 µM (active). The EC50 on Insulin-degrading enzyme [11], with HEK293 and at Insulin-degrading enzyme [12] was > 54.7 µM (inactive) each time. Besides, the CC50 in assay [14] is 5.35 µM (active).
